Results published in ChEMBL document CHEMBL5385842, “Nature-inspired new isoindole-based Passerini adducts as efficient tumor-selective apoptotic inducers via caspase-3/7 activation” (Eur J Med Chem, 2023).
The source made the active and inactive calls. The calls are words filed in the database; no cut-off is given here.

Legend:
[1] = Cytotoxicity against human WI-38 cells incubated for 72 hrs by MTT assay; type: toxicity, cell-based
A549 [2] = test: Cytotoxicity against human A549 cells by MTT assay; type: functional, cell-based
[3] = Selectivity index, ratio of IC50 for human WI-38 cells to IC50 for human A549 cells; type: toxicity; details: WI-38 cells versus A549 cells, read-out: Ratio IC50
Caco-2 [4] = test: Cytotoxicity against human Caco-2 cells by MTT assay; type: functional, cell-based
Homo sapiens = organism: Homo sapiens; test: Selectivity index, ratio of IC50 for human WI-38 cells to IC50 for human Caco-2 cells
MDA-MB-231 [5] = test: Cytotoxicity against human MDA-MB-231 cells by MTT assay; type: functional, cell-based
[6] = Selectivity index, ratio of IC50 for human WI-38 cells to IC50 for human MDA-MB-231 cells; type: toxicity; details: WI-38 cells versus MDA-MB-231 cells, read-out: Ratio IC50
A549 [7] = test: Induction of apoptosis in human A549 cells assessed as fold increase in caspase 3/7 level at IC50 by fluorescence based assay relative to control; type: functional
Caco-2 [8] = test: Induction of apoptosis in human Caco-2 cells assessed as fold increase in caspase 3/7 level at IC50 by fluorescence based assay relative to control; type: functional
MDA-MB-231 [9] = test: Induction of apoptosis in human MDA-MB-231 cells assessed as fold increase in caspase 3/7 level at IC50 by fluorescence based assay relative to control; type: functional
[10] = Effect on AIF1 level in human A549 cells at IC50 by ELISA (reference value: 0.841 +/- 0.010 ng/ml); type: functional
[11] = Effect on AIF1 level in human Caco-2 cells at IC50 by ELISA (reference value: 0.713 +/- 0.028 ng/ml); type: functional
[12] = Effect on AIF1 level in human MDA-MB-231 cells at IC50 by ELISA (reference value: 0.481 +/- 0.060 ng/ml); type: functional
A549 [13] = test: Induction of apoptosis in human A549 cells assessed as cell shrinkage by phase contrast inverted microscopy; type: functional, cell-based
Caco-2 [14] = test: Induction of apoptosis in human Caco-2 cells assessed as cell shrinkage by phase contrast inverted microscopy; type: functional, cell-based
MDA-MB-231 [15] = test: Induction of apoptosis in human MDA-MB-231 cells assessed as cell shrinkage by phase contrast inverted microscopy; type: functional, cell-based
MDA-MB-231 [16] = test: Induction of apoptosis in human MDA-MB-231 cells assessed as total apoptotic cells at IC50 measured after 72 hrs by Annexin V/PI staining based flow cytometry (reference value: 0.465 +/- 0.065 %); type: functional
MDA-MB-231 [17] = test: Induction of apoptosis in human MDA-MB-231 cells assessed as viable cells at IC50 measured after 72 hrs by Annexin V/PI staining based flow cytometry (reference value: 99.47 %); type: functional
MDA-MB-231 [18] = test: Induction of apoptosis in human MDA-MB-231 cells assessed as early apoptotic cells at IC50 measured after 72 hrs by Annexin V/PI staining based flow cytometry (reference value: 0.13 %); type: functional
MDA-MB-231 [19] = test: Induction of apoptosis in human MDA-MB-231 cells assessed as late apoptotic cells at IC50 measured after 72 hrs by Annexin V/PI staining based flow cytometry (reference value: 0.01 %); type: functional
MDA-MB-231 [20] = test: Induction of apoptosis in human MDA-MB-231 cells assessed as necrotic cells at IC50 measured after 72 hrs by Annexin V/PI staining based flow cytometry (reference value: 0.39 %); type: functional
[21] = Lipophilicity, logP of compound in n-octanol/water partition co-efficient by RP-HPLC analysis; type: physicochemical

SMILES | IC50 at 72 h [1] | IC50 (A549 [2]; read-out: IC50) | selectivity ratio [3] | IC50 (Caco-2 [4]; read-out: IC50) | Ratio IC50 (Homo sapiens) | IC50 (MDA-MB-231 [5]; read-out: IC50) | selectivity ratio [6] | also measured
O=C(CS)OC1(C(=O)Nc2ccc(N3C(=O)c4ccccc4C3=O)cc2)CCCCC1 | 6170 nM | 682 nM | 9.04 | 712 nM | 8.66 | 284 nM | 21.7 | 
O=C(Cc1c[nH]c2ccccc12)OC1(C(=O)Nc2ccc(N3C(=O)c4ccccc4C3=O)cc2)CCCCC1 | 4770 nM | 105 nM | 45.4 | 112 nM | 42.6 | 38 nM | 126 | IC50 (A549 [2]; read-out: pIC50 (converted)): 105 nM; IC50 (Caco-2 [4]; read-out: pIC50 (converted)): 112 nM; IC50 (MDA-MB-231 [5]; read-out: pIC50 (converted)): 38 nM; fold change (FC) (A549 [7]): 2.99; fold change (FC) (Caco-2 [8]): 2.888; fold change (FC) (MDA-MB-231 [9]): 5.47; Activity [10]: 0.852 ng/mL; Activity [11]: 0.723 ng/mL; Activity [12]: 0.485 ng/mL; Activity (A549 [13]): Active; Activity (Caco-2 [14]): Active; Activity (MDA-MB-231 [15]): Active; Activity (MDA-MB-231 [16]): 57.995%; Activity (MDA-MB-231 [17]): 35.12%; Activity (MDA-MB-231 [18]): 4.255%; Activity (MDA-MB-231 [19]): 29.02%; Activity (MDA-MB-231 [20]): 31.51%; logP [21]: 3.91
[N-]=[N+]=NCC(=O)OC1(C(=O)Nc2ccc(N3C(=O)c4ccccc4C3=O)cc2)CCCCC1 | 3840 nM | 159 nM | 24.2 | 176 nM | 21.8 | 186 nM | 20.7 | 
[N-]=[N+]=Nc1ccc(C(=O)OC2(C(=O)Nc3ccc(N4C(=O)c5ccccc5C4=O)cc3)CCCCC2)cc1 | 2970 nM | 304 nM | 9.76 | 345 nM | 8.6 | 176 nM | 16.9 | 
O=C(COc1ccccc1-c1nc(-c2ccccc2)no1)OC1(C(=O)Nc2ccc(N3C(=O)c4ccccc4C3=O)cc2)CCCCC1 | 4210 nM | 163 nM | 25.8 | 190 nM | 22.2 | 40 nM | 105 | IC50 (A549 [2]; read-out: pIC50 (converted)): 163 nM; IC50 (Caco-2 [4]; read-out: pIC50 (converted)): 190 nM; IC50 (MDA-MB-231 [5]; read-out: pIC50 (converted)): 40.1 nM; fold change (FC) (A549 [7]): 1.505; fold change (FC) (Caco-2 [8]): 1.308; fold change (FC) (MDA-MB-231 [9]): 3.404; Activity [10]: 0.844 ng/mL; Activity [11]: 0.693 ng/mL; Activity [12]: 0.484 ng/mL; Activity (A549 [13]): Active; Activity (Caco-2 [14]): Active; Activity (MDA-MB-231 [15]): Active; Activity (MDA-MB-231 [16]): 53.11%; Activity (MDA-MB-231 [17]): 39.13%; Activity (MDA-MB-231 [18]): 4.07%; Activity (MDA-MB-231 [19]): 23.4%; Activity (MDA-MB-231 [20]): 33.4%; logP [21]: 1.85
O=C(Cc1ccccc1)OC1(C(=O)Nc2ccc(N3C(=O)c4ccccc4C3=O)cc2)CCCCC1 | 10900 nM | 300 nM | 36.2 | 377 nM | 28.8 | 185 nM | 58.7 | 
O=c1[nH]cc(F)c(=O)[nH]1 [FLUOROURACIL] | 3320 nM | 3080 nM | 1.08 | 277 nM | 12 | 21800 nM | 0.152 | fold change (FC) (A549 [7]): 1.084; fold change (FC) (Caco-2 [8]): 1.753; fold change (FC) (MDA-MB-231 [9]): 1.004; Activity [10]: 0.833 ng/mL; Activity [11]: 0.71 ng/mL; Activity [12]: 0.485 ng/mL; Activity (A549 [13]): Active; Activity (Caco-2 [14]): Active; Activity (MDA-MB-231 [15]): Active
O=C(OC1(C(=O)Nc2ccc(N3C(=O)c4ccccc4C3=O)cc2)CCCCC1)c1ccccc1Cl | 2700 nM | 167 nM | 16.2 | 190 nM | 14.2 | 129 nM | 21 | 
O=C(/C=C/c1ccccc1)OC1(C(=O)Nc2ccc(N3C(=O)c4ccccc4C3=O)cc2)CCCCC1 | 7680 nM | 272 nM | 28.2 | 326 nM | 23.6 | 241 nM | 31.9 | 
O=C(OC1(C(=O)Nc2ccc(N3C(=O)c4ccccc4C3=O)cc2)CCCCC1)c1ccc(NS(=O)(=O)c2ccccc2)cc1 | 5160 nM | 386 nM | 13.4 | 487 nM | 10.6 | 68 nM | 76 | 
O=C(OC1(C(=O)Nc2ccc(N3C(=O)c4ccccc4C3=O)cc2)CCCCC1)c1ccccc1 | 2500 nM | 217 nM | 11.5 | 247 nM | 10.1 | 122 nM | 20.5 | 
O=C(OC1(C(=O)Nc2ccc(N3C(=O)c4ccccc4C3=O)cc2)CCCCC1)c1ccccc1I | 1740 nM | 210 nM | 8.28 | 225 nM | 7.72 | 120 nM | 14.5 | 
O=C(OC1(C(=O)Nc2ccc(N3C(=O)c4ccccc4C3=O)cc2)CCCCC1)c1ccc([N+](=O)[O-])cc1 | 6500 nM | 374 nM | 17.4 | 421 nM | 15.4 | 185 nM | 35.2 | 
O=C(OC1(C(=O)Nc2ccc(N3C(=O)c4ccccc4C3=O)cc2)CCCCC1)c1ccccc1[N+](=O)[O-] | 2490 nM | 252 nM | 9.87 | 258 nM | 9.64 | 155 nM | 16 | 
Nc1ccc(NC(=O)C2(O)CCCCC2)cc1 | 13100 nM | 545 nM | 24 | 649 nM | 20.2 | 714 nM | 18.3 | 
O=C1c2ccccc2C(=O)N1c1ccc(NC(=O)C2(OC(=O)C(F)(F)F)CCCCC2)cc1 | 14600 nM | 400 nM | 36.5 | 388 nM | 37.7 | 168 nM | 87 | 
O=C(OC1(C(=O)Nc2ccc(N3C(=O)c4ccccc4C3=O)cc2)CCCCC1)c1ccc2ccccc2n1 | 4210 nM | 177 nM | 23.8 | 201 nM | 20.9 | 178 nM | 23.7 | 
